Where two headings read alike, the source gives them in different places.
Key:
anesthetized dogs = experiment: Hemodynamics in anesthetized dogs, iv; format: in vivo
Procedure: Solvent control group, Isosorbide Dinitrate control group (0.4 mg/kg/h) and administration groups of 3,4′,5-trihydroxy-stilbene-3-[…]-D-glucoside at low (2.5 mg/kg), middle (5 mg/kg) or high (10 mg/kg) doses were set up for the test. Isosorbide Dinitrate control group were medicated by continuous intravenous infusion and other groups by intravenous injection.
After anesthetized with pentobarbital sodium, the dog was immobilized on its back. A femoral artery was separated for insertion of a catheter to record blood pressure of artery. A cardiac catheter was guided inversely from right common carotid artery into its left ventricle. Both catheters were connected to pressure transmitters. After pressure signals were amplified with carriers, they were input into an electrophysiolograph Powerlab system 8s, (ML785/8S AD Instruments, Australia). Needle electrodes were punctured into four limbs to monitor standard 2-lead ECG. A computer (chart4.12, ML785/8S, AD Instruments, Australia) were applied for real-time monitoring and storage of data. After operation, there were 30 minutes for stableness and then basic indexes were recorded before administration. Negative control group were given by […] injection of solvent at 2 ml/kg, while positive control group were intravenously infused at 0.4 mg/kg/h. […]
Indexes of observation included heart rate (HR), systolic blood pressure (BPs), diastolic blood pressure, mean blood pressure, left ventricular systolic pressure (LVSP), left ventricular diastolic pressure (LVDP), the maximum change rate of left ventricular systolic pressure rise and fall (±dp/dtmax), left ventricular end diastolic pressure and ECG.
Significance of differences was checked.

[1] = system: isolated carotid and pulmonary arteries; settings: cited from earlier work
[2] = TSG 2.5 mg/kg iv, Time c1-c5: 0,10,30,60,120 min, 10 min after dosing
[3] = TSG 2.5 mg/kg iv, Time c1-c5: 0,10,30,60,120 min, 30 min after dosing
[4] = TSG 2.5 mg/kg iv, Time c1-c5: 0,10,30,60,120 min, 60 min after dosing
[5] = TSG 2.5 mg/kg iv, Time c1-c5: 0,10,30,60,120 min, 120 min after dosing
[6] = TSG 2.5 mg/kg iv, Time c1-c5: 0,10,30,60,120 min, before dosing (0 min)
[7] = TSG 5 mg/kg iv, Time c1-c5: 0,15,30,60,120 min, 0 min, before dosing
[8] = TSG 5 mg/kg iv, Time c1-c5: 0,15,30,60,120 min, 15 min after dosing
[9] = TSG 5 mg/kg iv, Time c1-c5: 0,15,30,60,120 min, 30 min after dosing
[10] = TSG 5 mg/kg iv, Time c1-c5: 0,15,30,60,120 min, 60 min after dosing
[11] = TSG 5 mg/kg iv, Time c1-c5: 0,15,30,60,120 min, 120 min after dosing
[12] = TSG 10 mg/kg iv, Time c1-c5: 0,10,30,60,120 min, 0 min
[13] = TSG 10 mg/kg iv, Time c1-c5: 0,10,30,60,120 min, 10 min after dosing
[14] = TSG 10 mg/kg iv, Time c1-c5: 0,10,30,60,120 min, 30 min after dosing
[15] = TSG 10 mg/kg iv, Time c1-c5: 0,10,30,60,120 min, 60 min after dosing
[16] = TSG 10 mg/kg iv, Time c1-c5: 0,10,30,60,120 min, 120 min after dosing

3,4′,5-trihydroxy-stilbene-3-β-D-glucoside [TSG]
+dp/dt max (anesthetized dogs; [2]): 829.1 ± 308.3 Kpa/s
BPd (anesthetized dogs; [2]): 18.3 ± 2.3 KPa
BPm (anesthetized dogs; [2]): 20.7 ± 2.1 KPa
BPs (anesthetized dogs; [2]): 24.5 ± 2.0 KPa
HR (anesthetized dogs; [2]): 160.4 ± 18.4 p/min
LVDP (anesthetized dogs; [2]): 0.45 ± 2.40 KPa
LVEDP (anesthetized dogs; [2]): 1.00 ± 2.33 KPa
LVSP (anesthetized dogs; [2]): 25.2 ± 4.2 KPa
−dp/dt max (anesthetized dogs; [2]): 777.3 ± 241.8 Kpa/s
+dp/dt max (anesthetized dogs; [3]): 869.6 ± 235.9 Kpa/s
BPd (anesthetized dogs; [3]): 18.5 ± 2.2 KPa
BPm (anesthetized dogs; [3]): 20.8 ± 1.7 KPa
BPs (anesthetized dogs; [3]): 24.7 ± 1.3 KPa
HR (anesthetized dogs; [3]): 161.7 ± 18.0 p/min
LVDP (anesthetized dogs; [3]): 0.28 ± 2.40 KPa
LVEDP (anesthetized dogs; [3]): 1.11 ± 2.50 KPa
LVSP (anesthetized dogs; [3]): 25.7 ± 3.8 KPa
−dp/dt max (anesthetized dogs; [3]): 873.9 ± 236.8 Kpa/s
+dp/dt max (anesthetized dogs; [4]): 993.9 ± 206.2 Kpa/s
BPd (anesthetized dogs; [4]): 19.1 ± 2.5 KPa
BPm (anesthetized dogs; [4]): 21.6 ± 2.0 KPa
BPs (anesthetized dogs; [4]): 25.5 ± 1.6 KPa
HR (anesthetized dogs; [4]): 171.1 ± 18.8 p/min
LVDP (anesthetized dogs; [4]): 0.26 ± 2.35 KPa
LVEDP (anesthetized dogs; [4]): 0.78 ± 2.37 KPa
LVSP (anesthetized dogs; [4]): 26.5 ± 2.5 KPa
−dp/dt max (anesthetized dogs; [4]): 905.9 ± 207.8 Kpa/s
+dp/dt max (anesthetized dogs; [5]): 957.9 ± 190.0 Kpa/s
BPd (anesthetized dogs; [5]): 18.1 ± 1.8 KPa
BPm (anesthetized dogs; [5]): 20.2 ± 2.3 KPa
BPs (anesthetized dogs; [5]): 23.7 ± 3.3 KPa
HR (anesthetized dogs; [5]): 170.5 ± 16.1 p/min
LVDP (anesthetized dogs; [5]): 0.50 ± 2.06 KPa
LVEDP (anesthetized dogs; [5]): 1.09 ± 2.16 KPa
LVSP (anesthetized dogs; [5]): 26.7 ± 2.3 KPa
−dp/dt max (anesthetized dogs; [5]): 852.5 ± 159.6 Kpa/s
+dp/dt max (anesthetized dogs; [6]): 853.1 ± 321.1 Kpa/s
BPd (anesthetized dogs; [6]): 18.5 ± 1.7 KPa
BPm (anesthetized dogs; [6]): 21.1 ± 2.0 KPa
BPs (anesthetized dogs; [6]): 25.3 ± 3.0 KPa
HR (anesthetized dogs; [6]): 163.7 ± 21.1 p/min
LVDP (anesthetized dogs; [6]): 0.39 ± 2.20 KPa
LVEDP (anesthetized dogs; [6]): 1.14 ± 2.18 KPa
LVSP (anesthetized dogs; [6]): 24.9 ± 4.0 KPa
−dp/dt max (anesthetized dogs; [6]): 772.0 ± 201.0 Kpa/s
+dp/dt max (anesthetized dogs; [7]): 822.6 ± 353.8 Kpa/s
BPd (anesthetized dogs; [7]): 18.9 ± 4.2 KPa
BPm (anesthetized dogs; [7]): 21.1 ± 4.7 KPa
BPs (anesthetized dogs; [7]): 25.4 ± 6.4 KPa
HR (anesthetized dogs; [7]): 177.2 ± 35.5 p/min
LVEDP (anesthetized dogs; [7]): 1.05 ± 1.34 KPa
LVSP (anesthetized dogs; [7]): 24.1 ± 4.4 KPa
−dp/dt max (anesthetized dogs; [7]): 866.2 ± 350.7 Kpa/s
+dp/dt max (anesthetized dogs; [8]): 793.8 ± 299.0 Kpa/s
BPd (anesthetized dogs; [8]): 18.7 ± 4.4 KPa
BPs (anesthetized dogs; [8]): 25.4 ± 5.8 KPa
HR (anesthetized dogs; [8]): 171.0 ± 35.6 p/min
LVEDP (anesthetized dogs; [8]): 1.08 ± 1.62 KPa
LVSP (anesthetized dogs; [8]): 24.3 ± 4.6 KPa
−dp/dt max (anesthetized dogs; [8]): 812.2 ± 308.9 Kpa/s
+dp/dt max (anesthetized dogs; [9]): 855.5 ± 296.5 Kpa/s
BPd (anesthetized dogs; [9]): 19.2 ± 4.0 KPa
BPm (anesthetized dogs; [9]): 21.7 ± 4.2 KPa
BPs (anesthetized dogs; [9]): 26.1 ± 5.3 KPa
HR (anesthetized dogs; [9]): 170.0 ± 35.5 p/min
LVEDP (anesthetized dogs; [9]): 1.19 ± 1.76 KPa
LVSP (anesthetized dogs; [9]): 24.6 ± 4.6 KPa
−dp/dt max (anesthetized dogs; [9]): 912.3 ± 318.8 Kpa/s
+dp/dt max (anesthetized dogs; [10]): 936.1 ± 199.9 Kpa/s
BPd (anesthetized dogs; [10]): 19.8 ± 3.3 KPa
BPm (anesthetized dogs; [10]): 22.1 ± 3.3 KPa
BPs (anesthetized dogs; [10]): 26.6 ± 4.1 KPa
HR (anesthetized dogs; [10]): 178.0 ± 29.5 p/min
LVEDP (anesthetized dogs; [10]): 0.99 ± 1.19 KPa
LVSP (anesthetized dogs; [10]): 25.6 ± 3.0 KPa
−dp/dt max (anesthetized dogs; [10]): 891.5 ± 261.8 Kpa/s
+dp/dt max (anesthetized dogs; [11]): 921.4 ± 327.1 Kpa/s
BPd (anesthetized dogs; [11]): 18.8 ± 4.4 KPa
BPm (anesthetized dogs; [11]): 21.0 ± 4.4 KPa
BPs (anesthetized dogs; [11]): 25.0 ± 5.0 KPa
HR (anesthetized dogs; [11]): 170.2 ± 37.1 p/min
LVEDP (anesthetized dogs; [11]): 0.98 ± 1.42 KPa
LVSP (anesthetized dogs; [11]): 25.1 ± 5.2 KPa
−dp/dt max (anesthetized dogs; [11]): 872.0 ± 291.7 Kpa/s
+dp/dt max (anesthetized dogs; [12]): 1455.5 ± 637.7 Kpa/s
BPd (anesthetized dogs; [12]): 19.6 ± 3.7 KPa
BPm (anesthetized dogs; [12]): 22.5 ± 4.8 KPa
BPs (anesthetized dogs; [12]): 28.5 ± 7.5 KPa
HR (anesthetized dogs; [12]): 212.5 ± 31.3 p/min
LVSP (anesthetized dogs; [12]): 30.1 ± 5.9 KPa
−dp/dt max (anesthetized dogs; [12]): 1164.1 ± 488.8 Kpa/s
+dp/dt max (anesthetized dogs; [13]): 1646.2 ± 807.8 Kpa/s
BPd (anesthetized dogs; [13]): 21.0 ± 5.1 KPa
BPm (anesthetized dogs; [13]): 24.5 ± 5.9 KPa
BPs (anesthetized dogs; [13]): 32.4 ± 8.2 KPa
HR (anesthetized dogs; [13]): 209.7 ± 33.4 p/min
LVSP (anesthetized dogs; [13]): 32.4 ± 6.3 KPa
−dp/dt max (anesthetized dogs; [13]): 1200.6 ± 447.6 Kpa/s
+dp/dt max (anesthetized dogs; [14]): 1623.9 ± 729.5 Kpa/s
BPd (anesthetized dogs; [14]): 21.4 ± 5.5 KPa
BPm (anesthetized dogs; [14]): 25.1 ± 5.9 KPa
BPs (anesthetized dogs; [14]): 33.2 ± 8.5 KPa
HR (anesthetized dogs; [14]): 210.2 ± 33.8 p/min
LVSP (anesthetized dogs; [14]): 32.4 ± 6.8 KPa
−dp/dt max (anesthetized dogs; [14]): 1120.4 ± 357.8 Kpa/s
+dp/dt max (anesthetized dogs; [15]): 1518.5 ± 708.1 Kpa/s
BPd (anesthetized dogs; [15]): 20.6 ± 4.8 KPa
BPm (anesthetized dogs; [15]): 24.4 ± 5.1 KPa
BPs (anesthetized dogs; [15]): 33.6 ± 5.5 KPa
HR (anesthetized dogs; [15]): 207.1 ± 38.1 p/min
LVSP (anesthetized dogs; [15]): 31.7 ± 5.5 KPa
−dp/dt max (anesthetized dogs; [15]): 1189.6 ± 461.6 Kpa/s
+dp/dt max (anesthetized dogs; [16]): 1266.6 ± 334.8 Kpa/s
BPd (anesthetized dogs; [16]): 20.2 ± 3.0 KPa
BPm (anesthetized dogs; [16]): 22.7 ± 3.0 KPa
BPs (anesthetized dogs; [16]): 29.0 ± 4.8 KPa
HR (anesthetized dogs; [16]): 205.6 ± 50.2 p/min
LVSP (anesthetized dogs; [16]): 29.5 ± 2.7 KPa
−dp/dt max (anesthetized dogs; [16]): 1068.5 ± 208.6 Kpa/s
effect on vasoconstriction of noadrenalin ([1]; 1.37 mM): no noticeable effect
effect on vasoconstriction of noadrenalin ([1]; 1.71 mM): antagonistic effect
effect on isolated carotid and pulmonary arteries ([1]; 3.28 mM): no noticeable effect
effect on isolated carotid and pulmonary arteries ([1]; 5.12 mM): may relax

Source: patent publication US20080176810A1, “Use of 3, 4', 5-Trihydroxy-Stilbene-3-Beta-D-glucoside in Prepartion of Medicines For Treating and/or Preventing Ischemic Heart Disease” (SHENZHEN NEPTUNUS PHARMACEUTICAL CO., LTD., priority 2004, published 2008)
